Laboratory results: patent publication US9242978B2, “Phenylacetamide compound and pharmaceutical containing same” (KOWA COMPANY, LTD., priority 2012, dated 2016)
Read-outs that look alike come from different tables or passages of the source.

Tests used:
[1] = Evaluation of organ selectivity (non-binding drug concentration in liver and pancreas after oral administration); format: in vivo, normal mice (C57BL/6j mice); conditions: C57BL/6j, mouse, liver and pancreas, mice, 150 minutes after administration
[2] = as above; format: in vivo, normal mice (C57BL/6j mice); conditions: C57BL/6j, mouse, mice, 150 minutes after administration
Protocol: A test compound suspended in 10% (v/v) Gelucire 44/14 (GATTEFOSSE) was orally administered to normal mice (C57BL/6j mice, CLEA Japan, Inc.). The percentages of drugs that had not bound to proteins in the liver and the pancreas, which had been obtained by the in vitro test, were […] the total concentrations of the drugs in the liver and the pancreas obtained 150 minutes after administration of the drugs, so as to calculate the non-binding concentration of the drug in each case. The ratio of the non-binding concentration of the drug in the […] was calculated, and thus, liver selectivity was evaluated. As a comparative compound, PSN-GK1 described in non-patent document 11 (corresponding to Example 94 of patent document 2) was produced according to the method described in patent document 2, and the produced comparative compound was then evaluated in the same manner as described above (in the table, the comparative compound is indicated as PSN-GK1).

[3] = biological target: T1, GST-GK derived from human liver GK (Homo sapiens, UniProt P35557); experiment: In vitro GK activating action measurement test; format: biochemical; conditions: 10 min; test compound 1 μmol/L, glucose 2.5 mmol/L, 25° C.; read-out: GK activation rate (%)
T1 construct: made in house; host or cells: Escherichia coli DH5α
T1 sequence (P35557 1-466 isoform P35557-2): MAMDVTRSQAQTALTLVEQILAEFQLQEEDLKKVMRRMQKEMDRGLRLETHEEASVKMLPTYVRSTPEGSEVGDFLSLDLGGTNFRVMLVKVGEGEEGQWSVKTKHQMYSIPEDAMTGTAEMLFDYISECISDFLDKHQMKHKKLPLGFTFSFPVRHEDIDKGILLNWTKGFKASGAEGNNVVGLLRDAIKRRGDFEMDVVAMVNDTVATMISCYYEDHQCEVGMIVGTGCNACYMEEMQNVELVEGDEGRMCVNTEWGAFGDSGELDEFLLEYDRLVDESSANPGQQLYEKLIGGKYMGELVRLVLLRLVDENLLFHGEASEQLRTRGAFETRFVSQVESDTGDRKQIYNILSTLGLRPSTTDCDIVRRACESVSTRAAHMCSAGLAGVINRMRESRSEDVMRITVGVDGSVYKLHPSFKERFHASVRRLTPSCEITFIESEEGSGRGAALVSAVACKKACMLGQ
Text: cDNA (GenBank Accession No. NM_033507, human glucokinase, variant 2) encoding human liver-type GK polypeptide was cloned by performing a polymerase chain reaction (hereinafter referred to as “PCR”) using a human liver cDNA library (Human liver QUICK-Clone cDNA, TAKARA BIO INC.), and the thus cloned cDNA was then introduced into an expression vector (pGEX-3X, GE Healthcare Japan) for glutathione S transferase (hereinafter referred to as GST) fusion proteins. The resulting vector was introduced into Escherichia coli (Competent high DH5α, Toyobo Co., Ltd.), and the transformed Escherichia coli was then cultured at 37° C. Thereafter, Isopropyl β-D-1-thiogalactopyranoside (final concentration: 1 mmol/L, Sigma Aldrich Japan) was added to the culture, and the obtained mixture was then cultured at 30° C. for 3 hours. Thereafter, a cell mass was recovered. The recovered cell mass was subjected to freezing-and-thawing, and the resulting cell mass was then suspended in Triton-X that had been added in a final concentration of 1% to a phosphate buffer, followed by disintegration with an ultrasonic disintegrator. The homogenate was centrifuged at 33,200 rpm at 4° C. for 1 hour. Thereafter, the supernatant was recovered, and a GST-GK fusion protein was then purified using a glutathione column (GSTrap FF, GE Healthcare Japan). The obtained GST-GK fusion protein was divided into some portions each having a small volume, and the thus divided proteins were then preserved at −80° C.
A GK assay was carried out at 25° C. at a final incubation volume of 100 μL using a flat-bottom 96-well assay plate. An assay buffer comprised 25 mmol/L Hepes buffer (pH 7.1), 25 mmol/L KCl, 2.5 mmol/L or 10 mmol/L D-glucose, 5 mmol/L ATP, 1 mmol/L nicotinamide adenine dinucleotide phosphate (abbreviated as NADP), 2 mmol/L MgCl2, 1 mmol/L dithiothreitol (DTT), 2 units/mL glucose-6 phosphate dehydrogenase (G6PDH), and 1 μg/mL GST-GK derived from human liver GK. ATP, G6PDH, and NADP were purchased from Roche Diagnostics. […] The thus mixed solution was preincubated in an incubator in which the temperature was controlled at 25° C. for 15 minutes. Subsequently, the reaction was initiated by adding 10 μL of the GST-GK solution to the reaction mixture, resulting in a final concentration of 0.1 μg/mL. After initiation of the reaction, an increase in the optical concentration at 340 nm (OD340) was monitored with a microplate spectrophotometer (Varsamax, Molecular Devices Japan K. K.) every 10 seconds over an incubation period of 10 minutes. An inclination of the OD340 increase was defined as raw data. The GK activating rate was indicated as a numerical value obtained from the expression: (Inclination of OD340 increase by addition of the test compound)/(inclination of OD340 increase without addition of the test compound). The results of the GK activating rate obtained at a test compound concentration of 1 μmol/L under the condition of a glucose concentration of 2.5 mmol/L are shown in the following table 2.

[4] = liver, dose 10 mg/kg, read-out: Non-binding concentration (ng/mL) Liver
[5] = pancreas, dose 10 mg/kg, read-out: Non-binding concentration (ng/mL) Pancreas

SMILES: CC(=O)N1CC[C@H](C[C@@H](C(=O)Nc2ncc(F)s2)c2ccc(S(=O)(=O)C3CC3)cc2)C1 [Example 3, (R)-3-((S)-1-acetylpyrrolidin-3-yl)-2-(4-(cyclopropylsulfonyl)phenyl)-N-(5-fluorothiazol-2-yl)propanamide]
- selectivity ratio at 150 min ([1]; dose 10 mg/kg): 17
- concentration at 150 min [2, 4]: 65 ng/mL
- concentration at 150 min [2, 5]: 3.8 ng/mL
- activity at 1 µM [3]: 803%

SMILES: CC(=O)N1CC[C@H](C[C@@H](C(=O)Nc2ccc(C)cn2)c2ccc(S(=O)(=O)C3CC3)cc2)C1 [Example 23, (R)-3-((S)-1-acetylpyrrolidin-3-yl)-2-(4-(cyclopropylsulfonyl)phenyl)-N-(5-methylpyridin-2-yl)propanamide]
- selectivity ratio at 150 min ([2]; liver and pancreas, dose 3 mg/kg): 9
- concentration at 150 min ([2]; liver, dose 3 mg/kg, read-out: Non-binding concentration (ng/mL) Liver): 3 ng/mL
- concentration at 150 min ([2]; pancreas, dose 3 mg/kg, read-out: Non-binding concentration (ng/mL) Pancreas): 0.33 ng/mL
- activity at 1 µM [3]: 491%

SMILES: CNC(=O)N1CC[C@H](C[C@@H](C(=O)Nc2ncc(F)s2)c2ccc(S(=O)(=O)C3CC3)cc2)C1 [Example 2, (S)-3-((R)-2-(4-(cyclopropylsulfonyl)phenyl)-3-((5-fluorothiazol-2-yl)amino)-3-oxopropyl)-N-methylpyrrolidine-1-carboxamide]
- selectivity ratio at 150 min ([1]; dose 30 mg/kg): 41
- concentration at 150 min ([2]; liver, dose 30 mg/kg, read-out: Non-binding concentration (ng/mL) Liver): 23 ng/mL
- concentration at 150 min ([2]; pancreas, dose 30 mg/kg, read-out: Non-binding concentration (ng/mL) Pancreas): 0.56 ng/mL

SMILES: Cc1ccc(NC(=O)[C@H](C[C@H]2CCN(C(N)=O)C2)c2ccc(S(=O)(=O)C3CC3)cc2)nc1 [Example 21, (S)-3-((R)-2-(4-(cyclopropylsulfonyl)phenyl)-3-((5-methylpyridin-2-yl)amino)-3-oxopropyl)pyrrolidine-1-carboxamide]
- selectivity ratio at 150 min ([1]; dose 10 mg/kg): 25
- concentration at 150 min [2, 4]: 50 ng/mL
- concentration at 150 min [2, 5]: 2 ng/mL
- activity at 1 µM [3]: 727%

SMILES: O=C(Nc1ncc(F)s1)[C@H](C[C@H]1CCN(C(=O)NO)C1)c1ccc(S(=O)(=O)C2CC2)cc1 [Example 10, (S)-3-((R)-2-(4-(cyclopropylsulfonyl)phenyl)-3-((5-fluorothiazol-2-yl)amino)-3-oxopropyl)-N-hydroxypyrrolidine-1-carboxamide]
- activity at 1 µM [3]: 602%

SMILES: CNC(=O)N1CC[C@H](C[C@@H](C(=O)Nc2ncc(OC)s2)c2ccc(S(=O)(=O)C3CC3)cc2)C1 [Example 14, (S)-3-((R)-2-(4-(cyclopropylsulfonyl)phenyl)-3-((5-methoxythiazol-2-yl)amino)-3-oxopropyl)-N-methylpyrrolidine-1-carboxamide]
- activity at 1 µM [3]: 809%

SMILES: CCCNC(=O)N1CC[C@H](C[C@@H](C(=O)Nc2ncc(F)s2)c2ccc(S(=O)(=O)C3CC3)cc2)C1 [Example 6, (S)-3-((R)-2-(4-(cyclopropylsulfonyl)phenyl)-3-((5-fluorothiazol-2-yl)amino)-3-oxopropyl)-N-propylpyrrolidine-1-carboxamide]
- activity at 1 µM [3]: 422%

SMILES: CNC(=O)N1CC[C@H](C[C@@H](C(=O)Nc2ncc(Cl)s2)c2ccc(S(=O)(=O)C3CC3)cc2)C1 [Example 15, (S)-3-((R)-3-((5-chlorothiazol-2-yl)amino)-2-(4-(cyclopropylsulfonyl)phenyl)-3-oxopropyl)-N-methylpyrrolidine-1-carboxamide]
- activity at 1 µM [3]: 737%

SMILES: COc1cnc(NC(=O)[C@H](C[C@H]2CCN(C(C)=O)C2)c2ccc(S(=O)(=O)C3CC3)cc2)s1 [Example 26, (R)-3-((S)-1-acetylpyrrolidin-3-yl)-2-(4-(cyclopropylsulfonyl)phenyl)-N-(5-methoxythiazol-2-yl)propanamide]
- activity at 1 µM [3]: 877%

SMILES: COC(=O)N1CC[C@H](C[C@@H](C(=O)Nc2ncc(F)s2)c2ccc(S(=O)(=O)C3CC3)cc2)C1 [Example 7, (S)-methyl 3-((R)-2-(4-(cyclopropylsulfonyl)phenyl)-3-((5-fluorothiazol-2-yl)amino)-3-oxopropyl)pyrrolidine-1-carboxylate]
- activity at 1 µM [3]: 828%

SMILES: CNC(=S)N1CC[C@H](C[C@@H](C(=O)Nc2ncc(F)s2)c2ccc(S(=O)(=O)C3CC3)cc2)C1 [Example 8, (R)-2-(4-(cyclopropylsulfonyl)phenyl)-N-(5-fluorothiazol-2-yl)-3-((S)-1-(methylcarbamothioyl)pyrrolidin-3-yl)propanamide]
- activity at 1 µM [3]: 535%

SMILES: O=C(Nc1ncc(F)s1)[C@H](C[C@H]1CCN(C(=O)CO)C1)c1ccc(S(=O)(=O)C2CC2)cc1 [Example 13, (R)-2-(4-(cyclopropylsulfonyl)phenyl)-N-(5-fluorothiazol-2-yl)-3-((S)-1-(2-hydroxyacetyl)pyrrolidin-3-yl)propanamide]
- activity at 1 µM [3]: 443%

SMILES: CNC(=O)C(=O)N1CC[C@H](C[C@@H](C(=O)Nc2ncc(F)s2)c2ccc(S(=O)(=O)C3CC3)cc2)C1 [Example 11]
- activity at 1 µM [3]: 427%

SMILES: CNC(=O)N1CC[C@H](C[C@@H](C(=O)Nc2ccc(C)cn2)c2ccc(S(=O)(=O)C3CC3)cc2)C1 [Example 19, (S)-3-((R)-2-(4-(cyclopropylsulfonyl)phenyl)-3-((5-methylpyridin-2-yl)amino)-3-oxopropyl)-N-methylpyrrolidine-1-carboxamide]
- selectivity ratio at 150 min ([1]; dose 10 mg/kg): 17
- concentration at 150 min [2, 4]: 10 ng/mL
- concentration at 150 min [2, 5]: 0.58 ng/mL
- activity at 1 µM [3]: 437%

SMILES: CNC(=O)N1CC[C@H](C[C@@H](C(=O)Nc2ncc(C)s2)c2ccc(S(=O)(=O)C3CC3)cc2)C1 [Example 16, (S)-3-((R)-2-(4-(cyclopropylsulfonyl)phenyl)-3-((5-methylthiazol-2-yl)amino)-3-oxopropyl)-N-methylpyrrolidine-1-carboxamide]
- activity at 1 µM [3]: 484%
